{"source": "patent US20260294865A1", "about": "“AUTOPHAGY ACTIVATOR AND AUTOPHAGY ACTIVATION COMPOSITION” (MARUZEN PHARMACEUTICALS CO., LTD., priority 2023, published 2026)", "tested_on": "HeLa cells stably expressing tfLC3", "experiment": "tfLC3 test (autophagy activity, GFP/RFP ratio)", "format": "cell-based", "details": "for Ratio with respect to DMSO (GFP/RFP value, negative control taken as 1): final concentration 10 μM, 24 hours, HeLa cells stably expressing tfLC3, negative control 0.1% DMSO = 1, lower value = autophagy activation; for autophagy activation effect (in words): tfLC3 test, GFP/RFP ratio lower than negative control", "source_text": "An autophagy activation effect was examined by a tfLC3 test using the compound represented by the structural formula (1) (manufactured by INDOFINE Chemical Company) and the compound represented by the structural formula (2) (manufactured by INDOFINE Chemical Company) as test samples.\nThe tfLC3 test is a test performed by using tfLC3, in which LC3 that is an autophagosome marker protein is tandemly tagged with fluorescent proteins mRFP (RFP: Red Fluorescent Protein) and EGFP (GFP: Green Fluorescent Protein) (Autophagy 2007; 3:452-460. (PubMed: 17534139) DOI: 10.4161/auto. 4451).\nIn a cell undergoing autophagy, LC3 dots increase. However, LC3 is accumulated in a cell even if degradation due to autophagy is inhibited. Therefore, an increase of the LC3 dots alone cannot be used to conclude that autophagy is enhanced. Therefore, enhancement and inhibition of autophagy can be distinguished by examining the maturation process of autophagosomes (process of fusion of autophagosomes with lysosomes, or degradation in autolysosomes after fusion).\nA fluorescent signal (green) of GFP of the tfLC3 is attenuated in the environment within the lysosomes, but RFP (red) is stable in the same environment. By using this characteristic of tfLC3 that fluorescence becomes red due to quenching of GFP in the process of maturing autophagosomes into autolysosomes, a GFP/RFP ratio within a cell is analyzed in the tfLC3 test to determine whether or not a test sample added to a medium has an autophagy activation capability.\nHeLa cells stably expressing tfLC3 were seeded in a 96-well plate (Perkin Elmer #6055302 Cell Carrier 96 Ultra Black 96 well, Clear Bottom, with Lid), and the HeLA cells were cultured in a growth medium [Growth medium (DMEM (Sigma D6546) supplemented with 10% FBS and 4 mM L-glutamine] in a 5% CO2 incubator for 24 hours. Then, the medium was replaced with a medium to which a test sample was added (see Table 1 for the final concentration of the test sample), followed by culturing for 24 hours.\nAs a negative control, cells cultured in a medium including 0.1% dimethyl sulfoxide (DMSO) were used.\nThe GFP/RFP value (may be referred to as a “ratio with respect to DMSO” hereinafter) measured in the cells cultured in the test sample-added medium was calculated by determining the GFP/RFP value measured in the negative control as 1.\nA test sample that has a lower value for the GFP/RFP ratio than the value for the GFP/RFP ratio of the negative control can be determined as having an autophagy activation effect.", "data": [{"molecule": "COc1cc(OC)c2c(=O)cc(-c3ccc(OC)c(OC)c3)oc2c1", "note": "[2-(3,4-dimethoxyphenyl)-5,7-dimethoxy-4H-chromen-4-one]", "values": [{"measurement": "Ratio with respect to DMSO (GFP/RFP value, negative control taken as 1)", "value": 0.847}, {"measurement": "autophagy activation effect (in words)", "value": "had the autophagy activation effect"}]}, {"molecule": "COc1ccc2c(=O)c(OC)c(-c3cc(OC)c(OC)c(OC)c3)oc2c1", "note": "[3,7-dimethoxy-2-(3,4,5-trimethoxyphenyl)-4H-chromen-4-one]", "values": [{"measurement": "Ratio with respect to DMSO (GFP/RFP value, negative control taken as 1)", "value": 0.848}, {"measurement": "autophagy activation effect (in words)", "value": "had the autophagy activation effect"}]}]}
